# Data from patent US20260297081A1, “COMPOUNDS AND METHODS OF TREATING CANCERS” (Cullgen Inc., priority 2023, published 2026).
# pIC50: −log10 of the molar value.
# How the values were obtained:
# [1] = test system: MCF7 cells; assay: Anti-proliferation (viability) of MCF7 cells (Table 7, FIG. 2B); type: cell-based; conditions: Homo sapiens, MCF7, MCF7 cells, 3-6 days, 10-point serial dilution; read-out: GI IC50 in MCF-7
# [2] = biological target: CDK4 (Homo sapiens, UniProt P11802+Q16531); assay: CDK4 percentage degradation in Calu-1 cells (Table 6); type: cell-based; parameters: Cells that express cyclin D1-3 and CDK4/6 proteins were treated with heterobifunctional compounds; endogenous in cells; host or cells: Calu-1; conditions: 16 hours; for inhibition at 0.04 µM: 40 nM; for inhibition at 0.2 µM: 200 nM
# How it was run: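 Percentage degradation of Cyclin D1 and CDK4 derived from densitometry of ECL Western blots on lysates of Calu-1 cells. Treatment was 16 h with compound at either 40 nM or 200 nM.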
# CDK4, sequence (P11802 2-303 limits assumed): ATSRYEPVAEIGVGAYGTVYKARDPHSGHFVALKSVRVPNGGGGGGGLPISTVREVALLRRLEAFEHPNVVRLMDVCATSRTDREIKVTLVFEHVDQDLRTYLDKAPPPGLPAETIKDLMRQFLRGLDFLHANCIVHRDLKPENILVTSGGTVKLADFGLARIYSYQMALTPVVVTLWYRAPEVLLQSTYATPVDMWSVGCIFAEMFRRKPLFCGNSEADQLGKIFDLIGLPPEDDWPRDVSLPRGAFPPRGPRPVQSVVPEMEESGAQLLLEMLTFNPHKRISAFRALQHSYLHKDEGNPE
# CDK4, sequence (P24385 whole entry partner): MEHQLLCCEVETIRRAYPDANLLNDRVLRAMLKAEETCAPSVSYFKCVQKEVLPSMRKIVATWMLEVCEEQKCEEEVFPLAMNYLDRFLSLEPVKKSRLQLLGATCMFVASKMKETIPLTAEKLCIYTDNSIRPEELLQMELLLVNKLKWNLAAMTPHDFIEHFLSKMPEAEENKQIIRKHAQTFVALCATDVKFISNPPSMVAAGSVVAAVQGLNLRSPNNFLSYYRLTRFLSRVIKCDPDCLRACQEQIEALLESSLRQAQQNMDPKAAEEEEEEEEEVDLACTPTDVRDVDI
# CDK4, sequence (Q16531 2-1140 limits assumed): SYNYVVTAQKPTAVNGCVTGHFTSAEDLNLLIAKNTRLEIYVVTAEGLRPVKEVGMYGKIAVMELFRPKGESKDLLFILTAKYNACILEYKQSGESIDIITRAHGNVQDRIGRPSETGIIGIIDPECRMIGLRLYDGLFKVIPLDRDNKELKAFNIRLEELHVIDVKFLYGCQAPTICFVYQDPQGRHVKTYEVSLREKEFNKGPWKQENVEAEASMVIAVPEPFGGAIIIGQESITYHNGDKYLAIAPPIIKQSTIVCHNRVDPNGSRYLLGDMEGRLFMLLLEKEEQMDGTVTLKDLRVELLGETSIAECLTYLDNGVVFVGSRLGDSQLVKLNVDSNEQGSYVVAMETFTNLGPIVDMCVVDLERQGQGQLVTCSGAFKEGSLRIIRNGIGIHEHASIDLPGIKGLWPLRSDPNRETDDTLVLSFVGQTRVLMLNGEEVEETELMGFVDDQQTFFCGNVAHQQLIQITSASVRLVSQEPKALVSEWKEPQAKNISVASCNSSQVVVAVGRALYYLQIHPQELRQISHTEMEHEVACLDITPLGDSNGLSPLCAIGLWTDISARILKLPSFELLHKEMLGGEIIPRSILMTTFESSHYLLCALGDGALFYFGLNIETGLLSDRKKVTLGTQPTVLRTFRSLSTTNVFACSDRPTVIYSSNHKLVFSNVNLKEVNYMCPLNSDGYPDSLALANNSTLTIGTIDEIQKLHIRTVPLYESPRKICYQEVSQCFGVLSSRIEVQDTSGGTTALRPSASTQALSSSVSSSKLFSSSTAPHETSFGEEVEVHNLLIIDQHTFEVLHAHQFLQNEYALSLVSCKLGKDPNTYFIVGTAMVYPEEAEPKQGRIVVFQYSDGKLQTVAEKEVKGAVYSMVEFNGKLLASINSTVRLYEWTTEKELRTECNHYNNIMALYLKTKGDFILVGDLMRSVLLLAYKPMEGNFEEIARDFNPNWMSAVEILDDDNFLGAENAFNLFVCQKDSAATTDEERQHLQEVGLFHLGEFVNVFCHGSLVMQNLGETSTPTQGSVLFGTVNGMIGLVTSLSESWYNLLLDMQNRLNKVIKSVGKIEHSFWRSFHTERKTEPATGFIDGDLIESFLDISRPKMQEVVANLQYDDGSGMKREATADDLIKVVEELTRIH
Structure (SMILES),pIC50 [1],inhibition at 0.04 µM [2],inhibition at 0.2 µM [2]
"CNc1ccc(C(=O)Nc2ccc(N(C)C)nn2)c(NC2CC(NC(=O)C(C)N3CCN(c4ccc(Nc5ncc6c(C)c(C(C)=O)c(=O)n(C7CCCC7)c6n5)nc4)CC3)C2)n1 (stereo not drawn) [CPD-242, 2-((3-(2-(4-(6-((6-acetyl-8-cyclopentyl-5-methyl-7-oxo-7,8-dihydropyrido[2,3-d]pyrimidin-2-yl)amino)pyridin-3-yl)piperazin-1-yl)propanamido)cyclobutyl)amino)-N-(6-(dimethylamino)pyridazin-3-yl)-6-(methylamino)nicotinamide]",< 7.00,50 to 80%,50 to 80%
"[2H]C([2H])([2H])Nc1ccc(C(=O)Nc2ccc(N(C)C)nn2)c(NC2CCN(C(=O)CN3CCN(c4ccc(Nc5ncc6c(C)c(C(C)=O)c(=O)n(C7CCCC7)c6n5)nc4)CC3)CC2)n1 [CPD-250, 2-((1-(2-(4-(6-((6-acetyl-8-cyclopentyl-5-methyl-7-oxo-7,8-dihydropyrido[2,3-d]pyrimidin-2-yl)amino)pyridin-3-yl)piperazin-1-yl)acetyl)piperidin-4-yl)amino)-N-(6-(dimethylamino)pyridazin-3-yl)-6-((methyl-d3)amino)nicotinamide]",7.00 to 7.30,30 to 50%,50 to 80%
"CNc1ccc(C(=O)Nc2ccc(N(C)C)nn2)c(NC2CCN(C(=O)CN3CCN(Cc4ccc(Nc5ncc6c(C)c(C(C)=O)c(=O)n(C7CCCC7)c6n5)nc4)CC3)CC2)n1 [CPD-300, 2-((1-(2-(4-((6-((6-acetyl-8-cyclopentyl-5-methyl-7-oxo-7,8-dihydropyrido[2,3-d]pyrimidin-2-yl)amino)pyridin-3-yl)methyl)piperazin-1-yl)acetyl)piperidin-4-yl)amino)-N-(6-(dimethylamino)pyridazin-3-yl)-6-(methylamino)nicotinamide]",7.00 to 7.30,< 30%,< 30%
"CC(=O)c1c(C)c2cnc(Nc3ccc(N4CCN(C(C)C(=O)NC5CC(Nc6nc(NC(C)C)ccc6C(=O)Nc6ccc(N(C)C)nn6)C5)CC4)cn3)nc2n(C2CCCC2)c1=O (stereo not drawn) [CPD-326, 2-((3-(2-(4-(6-((6-acetyl-8-cyclopentyl-5-methyl-7-oxo-7,8-dihydropyrido[2,3-d]pyrimidin-2-yl)amino)pyridin-3-yl)piperazin-1-yl)propanamido)cyclobutyl)amino)-N-(6-(dimethylamino)pyridazin-3-yl)-6-(isopropylamino)nicotinamide]",7.00 to 7.30,< 30%,< 30%
"CNc1ccc(C(=O)Nc2ccc(N(C)C)nn2)c(NC2CCN(C(=O)C3CC34CCN(c3ccc(Nc5ncc6c(C)c(C(C)=O)c(=O)n(C7CCCC7)c6n5)nc3)CC4)CC2)n1 (stereo not drawn) [CPD-328, 2-((1-(6-(6-((6-acetyl-8-cyclopentyl-5-methyl-7-oxo-7,8-dihydropyrido[2,3-d]pyrimidin-2-yl)amino)pyridin-3-yl)-6-azaspiro[2.5]octane-1-carbonyl)piperidin-4-yl)amino)-N-(6-(dimethylamino)pyridazin-3-yl)-6-(methylamino)nicotinamide]",> 7.30,< 30%,< 30%
"CNc1ccc(C(=O)Nc2ccc(N(C)C)nn2)c(NC2CC(C(=O)N3CCC(N4CCN(c5ccc(Nc6ncc7c(C)c(C(C)=O)c(=O)n(C8CCCC8)c7n6)nc5)CC4)C3)C2)n1 (stereo not drawn) [CPD-333, 2-((3-(3-(4-(6-((6-acetyl-8-cyclopentyl-5-methyl-7-oxo-7,8-dihydropyrido[2,3-d]pyrimidin-2-yl)amino)pyridin-3-yl)piperazin-1-yl)pyrrolidine-1-carbonyl)cyclobutyl)amino)-N-(6-(dimethylamino)pyridazin-3-yl)-6-(methylamino)nicotinamide]",> 7.30,< 30%,< 30%
"[2H]C([2H])([2H])Nc1ccc(C(=O)Nc2ccc(N(C)C)nn2)c(NC2CC3(C2)CN(C(=O)CC(N2CCN(c4ccc(Nc5ncc6c(C)c(C(C)=O)c(=O)n(C7CCCC7)c6n5)nc4)CC2)C(F)(F)F)C3)n1 (stereo not drawn) [CPD-342, 2-((2-(3-(4-(6-((6-acetyl-8-cyclopentyl-5-methyl-7-oxo-7,8-dihydropyrido[2,3-d]pyrimidin-2-yl)amino)pyridin-3-yl)piperazin-1-yl)-4,4,4-trifluorobutanoyl)-2-azaspiro[3.3]heptan-6-yl)amino)-N-(6-(dimethylamino)pyridazin-3-yl)-6-((methyl-d3)amino)nicotinamide]",> 7.30,< 30%,< 30%
"CC(=O)c1c(C)c2cnc(Nc3ccc(CN4CCN(CC(=O)N5CCC(Nc6nc(NC(C)C)ccc6C(=O)Nc6ccc(N(C)C)nn6)CC5)CC4)cn3)nc2n(C2CCCC2)c1=O [CPD-358, 2-((1-(2-(4-((6-((6-acetyl-8-cyclopentyl-5-methyl-7-oxo-7,8-dihydropyrido[2,3-d]pyrimidin-2-yl)amino)pyridin-3-yl)methyl)piperazin-1-yl)acetyl)piperidin-4-yl)amino)-N-(6-(dimethylamino)pyridazin-3-yl)-6-(isopropylamino)nicotinamide]",7.00 to 7.30,< 30%,< 30%

# The remaining lines, values ahead:
pIC50 [1],inhibition at 0.04 µM [2],inhibition at 0.2 µM [2],Structure (SMILES)
7.00 to 7.30,30 to 50%,50 to 80%,"[2H]C([2H])([2H])Nc1ccc(C(=O)Nc2cc(C)n(C)n2)c(NC2CC3(CC(NC(=O)CN4CCN(c5ccc(Nc6ncc7c(C)c(C(C)=O)c(=O)n(C8CCCC8)c7n6)nc5)CC4)C3)C2)n1 (stereo not drawn) [CPD-244, 2-((6-(2-(4-(6-((6-acetyl-8-cyclopentyl-5-methyl-7-oxo-7,8-dihydropyrido[2,3-d]pyrimidin-2-yl)amino)pyridin-3-yl)piperazin-1-yl)acetamido)spiro[3.3]heptan-2-yl)amino)-N-(1,5-dimethyl-1H-pyrazol-3-yl)-6-((methyl-d3)amino)nicotinamide]"
> 7.30,30 to 50%,30 to 50%,"CC(=O)c1c(C)c2cnc(Nc3ccc(N4CCN(CC(=O)NCC5CC(Nc6nc(NC(C)C)ccc6C(=O)Nc6ccc(N(C)C)nn6)C5)CC4)cn3)nc2n(C2CCCC2)c1=O (stereo not drawn) [CPD-316, 2-((3-((2-(4-(6-((6-acetyl-8-cyclopentyl-5-methyl-7-oxo-7,8-dihydropyrido[2,3-d]pyrimidin-2-yl)amino)pyridin-3-yl)piperazin-1-yl)acetamido)methyl)cyclobutyl)amino)-N-(6-(dimethylamino)pyridazin-3-yl)-6-(isopropylamino)nicotinamide]"
> 7.30,< 30%,< 30%,"CC(=O)c1c(C)c2cnc(Nc3ccc(N4CCN(CC5(C(=O)N6CC7(CC(Nc8nc(NC(C)C)ccc8C(=O)Nc8cn(C)c(C9CC9)n8)C7)C6)CC5)CC4)cn3)nc2n(C2CCCC2)c1=O [CPD-322, 2-((2-(1-((4-(6-((6-acetyl-8-cyclopentyl-5-methyl-7-oxo-7,8-dihydropyrido[2,3-d]pyrimidin-2-yl)amino)pyridin-3-yl)piperazin-1-yl)methyl)cyclopropane-1-carbonyl)-2-azaspiro[3.3]heptan-6-yl)amino)-N-(2-cyclopropyl-1-methyl-1H-imidazol-4-yl)-6-(isopropylamino)nicotinamide]"
> 7.30,< 30%,< 30%,"CC(=O)c1c(C)c2cnc(Nc3ccc(N4CCN(CCC(=O)N5CC6(CC(Nc7nc(NC(C)C)ccc7C(=O)Nc7cn(C)c(C8CC8)n7)C6)C5)CC4)cn3)nc2n(C2CCCC2)c1=O [CPD-323, 2-((2-(3-(4-(6-((6-acetyl-8-cyclopentyl-5-methyl-7-oxo-7,8-dihydropyrido[2,3-d]pyrimidin-2-yl)amino)pyridin-3-yl)piperazin-1-yl)propanoyl)-2-azaspiro[3.3]heptan-6-yl)amino)-N-(2-cyclopropyl-1-methyl-1H-imidazol-4-yl)-6-(isopropylamino)nicotinamide]"
> 7.30,< 30%,< 30%,"CNc1ccc(C(=O)Nc2ccc(N(C)C)nn2)c(NC2CC3(C2)CN(C(=O)C2CC24CCN(c2ccc(Nc5ncc6c(C)c(C(C)=O)c(=O)n(C7CCCC7)c6n5)nc2)CC4)C3)n1 (stereo not drawn) [CPD-324, 2-((2-(6-(6-((6-acetyl-8-cyclopentyl-5-methyl-7-oxo-7,8-dihydropyrido[2,3-d]pyrimidin-2-yl)amino)pyridin-3-yl)-6-azaspiro[2.5]octane-1-carbonyl)-2-azaspiro[3.3]heptan-6-yl)amino)-N-(6-(dimethylamino)pyridazin-3-yl)-6-(methylamino)nicotinamide]"
> 7.30,< 30%,< 30%,"[2H]C([2H])([2H])Nc1ccc(C(=O)Nc2ccc(N(C)C)nn2)c(NC2CC3(C2)CN(C(=O)CC(C)N2CCN(c4ccc(Nc5ncc6c(C)c(C(C)=O)c(=O)n(C7CCCC7)c6n5)nc4)CC2)C3)n1 (stereo not drawn) [CPD-341, 2-((2-(3-(4-(6-((6-acetyl-8-cyclopentyl-5-methyl-7-oxo-7,8-dihydropyrido[2,3-d]pyrimidin-2-yl)amino)pyridin-3-yl)piperazin-1-yl)butanoyl)-2-azaspiro[3.3]heptan-6-yl)amino)-N-(6-(dimethylamino)pyridazin-3-yl)-6-((methyl-d3)amino)nicotinamide]"
> 7.30,< 30%,< 30%,"CC(=O)c1c(C)c2cnc(Nc3ccc(N4CCN(C(C)CC(=O)N5CCC(Nc6nc(NC(C)C)ccc6C(=O)Nc6ccc(N(C)C)nn6)CC5)CC4)cn3)nc2n(C2CCCC2)c1=O (stereo not drawn) [CPD-359, 2-((1-(3-(4-(6-((6-acetyl-8-cyclopentyl-5-methyl-7-oxo-7,8-dihydropyrido[2,3-d]pyrimidin-2-yl)amino)pyridin-3-yl)piperazin-1-yl)butanoyl)piperidin-4-yl)amino)-N-(6-(dimethylamino)pyridazin-3-yl)-6-(isopropylamino)nicotinamide]"
